From US20120190752A1, “EXO-S-MECAMYLAMINE METHOD, USE, AND COMPOUND FOR TREATMENT” (Targacept Inc., priority 2009, published 2012)

Tested on: subjects with major depressive disorder (MDD) who were inadequate responders to citalopram
Assay: SIS (Sheehan Irritability Scale), total and individual items, Phase 2b add-on trial
Format: in vivo, human
Parameters: SIS Adj. Mean change / SIS total score change Adjusted Mean / SIS Anger With Others change Adjusted Mean / SIS Anger With Self change Adjusted Mean / SIS Edginess change Adjusted Mean / SIS Irritability change Adjusted Mean / SIS Moodiness change Adjusted Mean / SIS Temper change Adjusted Mean: scale not given here
Conditions: for SIS Difference vs placebo / SIS Adj. Mean change: ITT; for SIS Difference vs placebo: Week 8 to Week 16 LOCF; for SIS Adj. Mean change: change from Week 8 (double-blind baseline) to Week 16 LOCF, add-on to citalopram
Protocol: In more detail, a multi-center double-blind, randomized, placebo-controlled, parallel group, flexible dose titration study of TC-5214 as adjunctive therapy in subjects with major depressive disorder (MDD) who were inadequate responders to citalopram was conducted in centers in the US and India. The study consisted of a screening period, baseline/washout period, open-label phase, double-blind phase, and a follow-up visit. Subject participation in the study could continue for up to 16 weeks of treatment. Following a washout period of up to 28 days for other antidepressants, subjects with MDD and a MADRS total score >/=28 and a Clinical Global Impression-Severity (CGI-S) score >/=4 were enrolled on Day 1 into an open-label citalopram-only phase of the study. This phase lasted 8 weeks, with citalopram (CIT) dose increased from a once-daily dose of 20 mg (Day 1 through Week 4) to 40 mg (Week 4 through Week 8). A total of 579 subjects entered the open-label citalopram phase. At Week 8, subjects who tolerated 40 mg CIT, but whose MADRS score was reduced <50% from baseline and no lower than 17, and CGI-S≧4, were considered inadequate responders. These subjects (n=270) were randomized in a double-blind fashion to receive either placebo or TC-5214-23 as add-on therapy to continued CIT. The double-blind phase of the study also lasted 8 weeks (Week 8 to Week 16). Study drug, TC-5214-23 or placebo, was started at 2 mg daily (1 mg twice per day [BID] dosing), added on to continuing CIT (40 mg PO qd). After 2 weeks of treatment, the dose of TC-5214 could be increased to 4 mg (2 mg BID) or continued unchanged, with up-titration based upon good tolerability and inadequate therapeutic response. After a further 2 weeks, the dose of TC-5214 could be increased again to 8 mg (4 mg BID) if judged appropriate by the investigator, based upon good tolerability and inadequate therapeutic response. At any time during the double-blind phase of the study, placebo or TC-5214-23 could be reduced to the previous dose level following the emergence of unacceptable adverse events (AEs). […] At this follow-up, any signs or symptoms of relapse were evaluated. If a subject was prematurely discontinued from the study between Week 8 and Week 16 for any reason, the investigator was to make every effort to perform all evaluations as per protocol, assuming the subject had reached the end of the double-blind add-on treatment phase. These evaluations were to be made as soon as possible and within 2 weeks of discontinuation. […] There was no meaningful difference in results as a function of age, gender, site, or smoking status. [table] With regard to efficacy endpoints, the following tables present efficacy used in the ITT (Intent-to-Treat) and PP (Per Protocol) populations unless otherwise specific. The primary inference was based upon Week 16 visit using the ITT population. Change from baseline was obtained by subtracting the baseline values from the individual on-treatment values. Change from Week 16 was obtained by subtracting the Week 16 values from the individual follow-up visit (Week 18/19) values. If either the baseline or Week 16 or on-treatment or follow-up value was missing, the change from baseline or Week 16 value was also set to missing. To account for missing data, the last observation carry forward (LOCF) method was used for the ITT and PP populations. Thus, the last available on-therapy observation for a subject, including the observation at premature discontinuation, was used to estimate subsequent missing data points. For efficacy, baseline data were collected at Week 8 in the double-blind augmentation phase electronic case report form pages. For SIS, the endpoint was the change from Week 8 (double-blind baseline) to Week 16 of the SIS. Changes were analyzed using ANCOVA. Each SIS item score was also analyzed using ANCOVA. […]

[1] = ITT Population, Double Blind Week 16 LOCF, change from Week 8 (double-blind baseline)
[2] = ITT Population, Double Blind Week 18 LOCF (Follow-up)
[3] = ITT and PP populations, result in words
[4] = PP Population, Double Blind Week 16 LOCF, change from Week 8 (double-blind baseline)
[5] = PP Population, Double Blind Week 18 LOCF (Follow-up)

CNC1(C)C2CCC(C2)C1(C)C (stereo in doubt) [TC-5214, (S)—N,2,3,3-tetramethylnorbornan-2-amine]
SIS total score change Adjusted Mean [1]: −18.21
SIS total score change Mean Difference between TC-5214 and Placebo [1]: 8.76
SIS total score change Adjusted Mean [2]: −0.68
SIS total score change Mean Difference between TC-5214 and Placebo [2]: −0.51
SIS total score change from baseline compared with placebo [3]: statistically significant decreases (improvements)
each SIS individual item change from baseline compared with placebo [3]: statistically significant decreases (improvements)
SIS Difference vs placebo: −8.54 (−11.65, −5.44)
SIS Difference vs placebo (listed as TC-5214 + CIT): −8.54
SIS Adj. Mean change: −18.21 (1.12)
SIS Adj. Mean change (listed as TC-5214 + CIT): −18.21
SIS total score change Adjusted Mean [4]: −19.96
SIS total score change Mean Difference between TC-5214 and Placebo [4]: 10.04
SIS total score change Adjusted Mean [5]: −0.77
SIS total score change Mean Difference between TC-5214 and Placebo [5]: −0.34
